In patent US8557796B2, “Substituted 1-oxa-2,8-diaza-spiro [4,5] dec-2-ene derivatives and related treatment methods” (Gruenenthal GmbH, priority 2001, dated 2013):

Assays:
NA transporter = target: T1, NA transporter (Rattus norvegicus, UniProt Q9WTR4); assay: Noradrenalin uptake inhibition (NA-uptake) in synaptosomes; assay type: biochemical; conditions: rat hypothalamus synaptosomes
T1 construct: synaptosomes from rat brain regions were freshly isolated; from tissue; host or cells: P2 synaptosome fraction from hypothalamus of male rat brain
From the text: Tests on Noradrenalin Uptake Inhibition (NA-Uptake Inhibition)
In order to be able to carry out these in vitro studies, synaptosomes from rat brain regions were freshly isolated.

α2A-receptor = target: T2, α2A-receptor (Homo sapiens, UniProt P08913); assay: α2A-assay, displacement of a marked ligand; assay type: binding; conditions: human receptor membranes, read-out: alpha2A human, 1 μM, % inhibition
T2 construct: purchased
T2 sequence (P08913 1-465): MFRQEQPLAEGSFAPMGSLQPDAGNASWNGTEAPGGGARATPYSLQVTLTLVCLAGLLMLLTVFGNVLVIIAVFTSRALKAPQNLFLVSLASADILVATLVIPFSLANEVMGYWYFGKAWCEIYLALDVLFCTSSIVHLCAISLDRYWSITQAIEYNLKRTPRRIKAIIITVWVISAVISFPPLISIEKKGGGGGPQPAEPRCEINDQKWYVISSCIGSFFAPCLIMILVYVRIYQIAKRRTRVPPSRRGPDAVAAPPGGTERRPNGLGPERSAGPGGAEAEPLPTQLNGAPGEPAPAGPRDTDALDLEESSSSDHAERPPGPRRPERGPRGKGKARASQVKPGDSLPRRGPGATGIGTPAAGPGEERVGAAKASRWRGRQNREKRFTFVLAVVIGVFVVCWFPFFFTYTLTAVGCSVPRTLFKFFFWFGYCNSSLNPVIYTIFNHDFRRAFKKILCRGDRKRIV
Protocol: The bond was measured here by the displacement of a marked ligand. The test was carried out according to J. P. Devlin's instructions, “High throughput screening—the discovery of bioactive substances”, p. 275-453, Marcel Dekker, New York, 1997. Membranes containing […] (human) were obtained commercially.
Compounds according to the invention were tested in this assay: the measured results are recited in Table 5: […]

5HT-uptake = target: T3, 5HT-uptake (Rattus norvegicus, UniProt P31652); assay: Serotonin uptake inhibition (5HT uptake) in synaptosomes; assay type: biochemical; conditions: rat brain synaptosomes
T3 construct: synaptosomes from rat brain regions were freshly isolated; from tissue; host or cells: P2 synaptosome fraction from rat brain regions
T3 sequence (P31652 whole entry): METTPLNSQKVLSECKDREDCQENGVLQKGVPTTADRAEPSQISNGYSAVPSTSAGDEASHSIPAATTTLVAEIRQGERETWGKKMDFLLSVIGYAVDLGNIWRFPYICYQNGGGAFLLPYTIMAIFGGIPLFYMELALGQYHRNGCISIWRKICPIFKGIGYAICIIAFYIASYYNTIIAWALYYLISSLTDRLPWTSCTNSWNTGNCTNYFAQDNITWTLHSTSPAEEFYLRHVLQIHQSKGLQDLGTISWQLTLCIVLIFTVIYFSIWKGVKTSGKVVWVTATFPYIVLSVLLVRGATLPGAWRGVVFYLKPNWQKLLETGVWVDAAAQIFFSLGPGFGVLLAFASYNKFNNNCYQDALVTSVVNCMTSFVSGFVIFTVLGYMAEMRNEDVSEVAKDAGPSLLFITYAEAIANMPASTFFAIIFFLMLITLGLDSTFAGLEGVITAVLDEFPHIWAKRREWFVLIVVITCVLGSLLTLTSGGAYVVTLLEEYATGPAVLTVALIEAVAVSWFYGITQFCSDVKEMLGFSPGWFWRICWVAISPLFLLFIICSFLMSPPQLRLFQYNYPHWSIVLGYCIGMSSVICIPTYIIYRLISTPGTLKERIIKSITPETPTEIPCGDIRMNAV
From the text: Tests on Serotonin Uptake (5HT Uptake Inhibition)

T1 sequence (Q9WTR4 1-597): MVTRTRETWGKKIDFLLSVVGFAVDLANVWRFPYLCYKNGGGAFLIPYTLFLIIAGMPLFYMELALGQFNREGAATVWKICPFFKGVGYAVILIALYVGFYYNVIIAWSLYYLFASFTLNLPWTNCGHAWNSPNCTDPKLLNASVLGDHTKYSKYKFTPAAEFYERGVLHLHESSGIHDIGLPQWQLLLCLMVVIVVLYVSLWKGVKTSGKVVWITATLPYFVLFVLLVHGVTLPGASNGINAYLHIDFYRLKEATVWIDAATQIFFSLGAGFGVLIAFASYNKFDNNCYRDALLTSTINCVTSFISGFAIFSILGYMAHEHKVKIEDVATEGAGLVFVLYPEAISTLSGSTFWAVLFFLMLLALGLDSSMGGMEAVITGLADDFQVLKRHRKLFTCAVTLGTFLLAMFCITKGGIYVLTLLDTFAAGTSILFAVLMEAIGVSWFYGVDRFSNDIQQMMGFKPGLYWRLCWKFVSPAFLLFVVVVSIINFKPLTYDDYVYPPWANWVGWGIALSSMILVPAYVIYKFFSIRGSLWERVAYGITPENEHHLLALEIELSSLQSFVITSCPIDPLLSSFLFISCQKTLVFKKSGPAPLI

Compound	inhibition at 10 µM (NA transporter)	inhibition at 10 µM (5HT-uptake)	also measured
O=C(NCC1COc2ccccc2O1)C1=NOC2(CCN(S(=O)(=O)c3cccs3)CC2)C1 (stereo not shown) [Example 21, 8-(thiophene-2-sulphonyl)-1-oxa-2,8-diaza-spiro[4,5]dec-2-ene-3-carboxylic acid (2,3-dihydro-benzo[1,4]dioxin-2-ylmethyl)-amide]	61%		inhibition at 1 µM (α2A-receptor): 31%
Cc1ccccc1N1CCN(C(=O)C2=NOC3(CCN(S(=O)(=O)c4cccs4)CC3)C2)CC1 [Example 27, [8-(thiophene-2-sulphonyl)-1-oxa-2,8-diaza-spiro[4,5]dec-2-en-3-yl]-(4-o-tolyl-piperazin-1-yl)-methanone]	80%	49%	inhibition at 1 µM (α2A-receptor): 37%
Cc1ccc(S(=O)(=O)N2CCC3(CC2)CC(C(=O)N2CCN(c4ccc(C)cc4C)CC2)=NO3)cc1 [Example 33, [4-(2,4-dimethyl-phenyl)-piperazin-l-yl]-[8-(toluene-4-sulphonyl)-1-oxa-2,8-diazaspiro[4,5]dec-2-en-3-yl]methanone]			5HT-uptake, 10 μM, % inhibition (5HT-uptake): 57%; NA-uptake, 10 μM, % inhibition (NA transporter): 42%
Cc1ccc(F)cc1S(=O)(=O)N1CCC2(CC1)CC(C(=O)NCCN(C)C)=NO2 [Example 37, 8-(5-fluoro-2-methyl-benzenesulphonyl)-1-oxa-2,8-diaza-spiro[4,5]dec-2-ene-3-carboxylic acid (2-dimethylamino-ethyl)-amide]	52%	70%	
CC(NC(=O)C1=NOC2(CCN(S(=O)(=O)c3cc(Cl)ccc3Cl)CC2)C1)C(=O)Nc1ccc2ccccc2c1 (stereo not shown) [Example 44, 8-(2,5-dichloro-benzenesulphonyl)-1-oxa-2,8-diaza-spiro[4,5]dec-2-ene-3-carboxylic acid [1-(naphthalen-2-ylcarbamoyl)-ethyl]amide]	48%	80%	
O=C(NC1CCN(Cc2ccc3ccccc3c2)C1)C1=NOC2(CCN(S(=O)(=O)c3ccc(Cl)s3)CC2)C1 (stereo not shown) [Example 50, 8-(5-chloro-thiophene-2-sulphonyl)-1-oxa-2,8-diaza-spiro[4,5]dec-2-ene-3 carboxylic acid (1-naphthalen-2-ylmethyl-pyrrolidin-3-yl)-amide]	50%	57%	
CCOC(=O)N1CCC(NC(=O)C2=NOC3(CCN(C(=O)C4CC4c4ccccc4)CC3)C2)CC1 (stereo not shown) [Example 55, 4-{[8-(2-phenyl-cyclopropanecarbonyl)-1-oxa-2,8-diaza-spiro[4,5]dec-2-ene-3-carbonyl]-amino}-piperidine-1-carboxylic acid ethyl ester]	50%	65%	
COc1cccc(CN2CCC(NC(=O)C3=NOC4(CCN(S(=O)(=O)c5cc(Cl)ccc5Cl)CC4)C3)C2)c1 (stereo not shown) [Example 64]			5HT-uptake, 10 μM, % inhibition (5HT-uptake): 61%; NA-uptake, 10 μM, % inhibition (NA transporter): 61%
CN(C)S(=O)(=O)N1CCC2(CC1)CC(C(=O)N1CCN(Cc3ccc4ccccc4c3)CC1)=NO2 [Example 65, 3-(4-naphthalen-2-ylmethyl-piperazine-1-carbonyl)-1-oxa-2,8-diaza-spiro[4,5]dec-2-ene-8-sulphonic acid dimethylamide]	63%	81%	
Cc1ccc(S(=O)(=O)N2CCC3(CC2)CC(C(=O)NC2CCCC2OCc2ccccc2)=NO3)cc1 (stereo not shown) [Example 67, 8-(toluene-4-sulphonyl)-1-oxa-2,8-diaza-spiro[4,5]dec-2-ene-3-carboxylic acid (2-benzyloxy-cyclopentyl)-amide]		58%	NA-uptake, 10 μM, % inhibition (NA transporter; 10 µM): 59%
O=C(C1=NOC2(CCN(S(=O)(=O)Cc3ccccc3)CC2)C1)N1CCN(CCCc2ccccc2)CC1 [Example 69]			5HT-uptake, 10 μM, % inhibition (5HT-uptake): 63%; NA-uptake, 10 μM, % inhibition (NA transporter): 56%
Cc1ccc(S(=O)(=O)N2CCC3(CC2)CC(C(=O)NC2CCCC2OCc2ccccc2)=NO3)cc1 (stereo not shown) [Example 73, 8-(toluene-4-sulphonyl)-1-oxa-2,8-diaza-spiro[4,5]dec-2-ene-3-carboxylic acid (2-benzyloxy-cyclopentyl)-amide]			5HT-uptake, 10 μM, % inhibition (5HT-uptake; 10 µM): 46%; NA-uptake, 10 μM, % inhibition (NA transporter; 10 µM): 93%
CC(NC(=O)C1=NOC2(CCN(S(=O)(=O)c3cccs3)CC2)C1)c1cccc2c1OCCO2 (stereo not shown) [Example 84, 8-(thiophene-2-sulphonyl)-1-oxa-2,8-diaza-spiro[4,5]dec-2-ene-3-carboxylic acid [1-(2,3-dihydro-benzo[1,4]dioxin-5-yl)-ethyl]-amide]	67%	68%	
CN(Cc1cccnc1)C(=O)C1=NOC2(CCN(S(=O)(=O)c3cccc(C(F)(F)F)c3)CC2)C1 [Example 101, 8-(3-trifluoromethyl-benzenesulphonyl)-1-oxa-2,8-diaza-spiro[4,5]dec-2-ene-3 carboxylic acid methyl-pyridin-3-ylmethyl-amide]	43%	46%	
COc1ccc(S(=O)(=O)N2CCC3(CC2)CC(C(=O)NCCc2ccccc2F)=NO3)cc1 [Example 104]			5HT-uptake, 10 μM, % inhibition (5HT-uptake): 41%; NA-uptake, 10 μM, % inhibition (NA transporter): 49%
Cc1ccc(CNC(=O)C2=NOC3(CCN(C(=O)c4ccc(Br)cc4)CC3)C2)o1 [Example 109, 8-(4-bromo-benzoyl)-1-oxa-2,8-diaza-spiro[4,5]dec-2-ene-3-carboxylic acid (5-methyl-furan-2-ylmethyl)-amide]	40%	56%	
Cc1cc(C(=O)N2CCC3(CC2)CC(C(=O)NCc2ccncc2)=NO3)ccc1Br [Example 130, 8-(4-bromo-3-methyl-benzoyl)-1-oxa-2,8-diaza-spiro[4,5]dec-2-ene-3-carboxylic acid (pyridin-4-ylmethyl)-amide]	61%	64%	
CN(C)S(=O)(=O)N1CCC2(CC1)CC(C(=O)N1CCN(C3CCCCCC3)CC1)=NO2 [Example 144, 3-(4-cycloheptyl-piperazine-1-carbonyl)-1-oxa-2,8-diaza-spiro[4,5]dec-2-ene-8 sulphonic acid dimethylamide]	56%	41%	
Cc1ccc(F)cc1S(=O)(=O)N1CCC2(CC1)CC(C(=O)NCc1cccs1)=NO2 [Example 150, 8-(5-fluoro-2-methyl-benzenesulphonyl)-1-oxa-2,8-diaza-spiro[4,5]dec-2-ene-3-carboxylic acid (thiophen-2-ylmethyl)-amide]	48%	70%	
COc1ccccc1C1CCN(C(=O)C2=NOC3(CCN(S(=O)(=O)c4ccc(Cl)s4)CC3)C2)CC1 [Example 151, [8-(5-chloro-thiophene-2-sulphonyl)-1-oxa-2,8-diaza-spiro[4,5]dec-2-en-3-yl]-[4-(2-methoxy-phenyl)-piperidin-1-yl]-methanone]			inhibition at 1 µM (α2A-receptor): 33%
O=C(NCc1cccs1)C1=NOC2(CCN(S(=O)(=O)c3ccccc3Cl)CC2)C1 [Example 156, 8-(2-chloro-benzenesulphonyl)-1-oxa-2,8-diaza-spiro[4,5]dec-2-ene-3-carboxylic acid (thiophen-2-ylmethyl)-amide]	60%	41%	
COc1ccc(S(=O)(=O)N2CCC3(CC2)CC(C(=O)NC(C)Cc2ccc(Cl)cc2)=NO3)cc1 (stereo not shown) [Example 164, 8-(4-methoxy-benzenesulphonyl)-1-oxa-2,8-diaza-spiro[4,5]dec-2-ene-3-carboxylic acid [2-(4-chloro-phenyl)-1-methyl-ethyl]-amide]	80%	54%	
O=C(NCCc1ccc(Cl)c(Cl)c1)C1=NOC2(CCN(S(=O)(=O)c3ccc(OC(F)(F)F)cc3)CC2)C1 [Example 165]			5HT-uptake, 10 μM, % inhibition (5HT-uptake): 41%; NA-uptake, 10 μM, % inhibition (NA transporter): 55%
